Results as given in PMC10115881, “Disrupting the α-synuclein-ESCRT interaction with a peptide inhibitor mitigates neurodegeneration in preclinical models of Parkinson’s disease” (Nature Communications, 2023).
Several values for one entry are separate records, joined by “and”; a condition that tells them apart may be missing. Equal values may be shown once.

Key:
[1] = test system: LC3-HiBiT reporter in HEK293 cells; assay: Autophagy flux assay (LC3-HiBiT reporter), HEK293 cells; format: cell-based, human
Excerpt: Autophagic flux was quantitatively measured with the Autophagy LC3-HiBiT Reporter Assay System which was purchased from Promega (GA1040) and used according to the manufacturer’s instructions. When autophagy is induced, the cytosolic LC3-I fusion protein is recruited to phagophores where it becomes conjugated to phosphatidylethanolamine to form LC3-II. Upon phagophore membrane elongation and closure to form the mature autophagosome, a significant fraction of tethered LC3 protein becomes captured within the lumen together with various cargo. Subsequently, autophagosomes fuse with lysosomes to form autolysosomes, leading to the ultimate degradation of both cargo and the captured LC3 reporter protein. Thus, changes in the total level of the LC3 reporter protein can be used to monitor changes in autophagic flux. HEK293 cells (ATCC, CRL-1573) stably expressing the LC3-HiBiT reporter were trypsinized from subconfluent culture and seeded in a 10 cm plate at a density of 3.0 × 10^6 per plate. Cells were incubated overnight at 37 °C in 5% CO2. Cells were transfected with FLAG-peptide plasmids in combination with pcDNA or A53T a-syn plasmids. After 24 h, cells were trypsinized and seeded in triplicate in a white flat-bottomed 96-well plate at a density of 20,000 cells per well. Cell medium was replaced the next day with fresh medium containing DMSO, Rapamycin, or Bafilomycin A1 and incubated for 24 h at 37 °C with 5% CO2. 80 µL of Working prewarmed Nano-Glo® HiBiT lytic buffer containing HiBiT substrate and LgBit protein (N3030) were added to each well containing 20 µL of cell medium and left to incubate on a rocker for 10 min. Samples were read using a luminometer with a 480 nm filter with measured RLU being directly proportional to HiBiT-conjugated LC3.

[2] = test system: V1S/SV2 a-syn rats; assay: AAV-V1S/SV2 a-syn oligomer rat model; format: in vivo
Description: Adult female Sprague-Dawley rats (250–280 g; Envigo) were pair-housed in cages with wood bedding and had access to food and water ad libitum. The animal colony was maintained in a regular 12 h light/dark cycle. All procedures were approved by the University Health Network Animal Care Committee in accordance with guidelines and regulations set by the Canadian Council on Animal Care (AUP #3818).
Animals were secured in a stereotactic frame under isoflurane/oxygen anesthesia and ketoprofen (5 mg/kg) analgesia. The surgical site was shaved and sterilized with iodine/betadine prior to making a 2 cm incision along the midline. The scalp was exposed and a unilateral injection targeting the SN was performed at coordinates AP −5.2 mm, ML −2 mm and DV −7.5 mm with respect to the bregma as a point of reference. For each animal, a total volume of 2 μl of virus was injected at a rate of 0.5 μl/min using a microinjection pump and 10 μl Hamilton syringe with a 26-gauge needle. […] At the end of virus injection, the needle remained in place for 5 min before gradual removal.
Sections were then incubated in blocking solution (1% or 2% BSA, 10% normal goat serum in PBS-T) for 1 h. After blocking, sections were incubated with primary antibodies in antibody solution (2% normal goat serum in PBS-T) overnight at RT. Sections were then washed in PBS or PBS-T and incubated with secondary antibodies diluted in antibody solution for 1 h in the dark at room temperature. Sections were then mounted onto glass slides and allowed to dry and then Dako fluorescence mounting medium (Agilent) was applied, followed by coverslips.
Confocal images of immunofluorescent staining were acquired with a Zeiss LSM880 confocal microscope equipped with 405, 488, 555, and 639 nm laser lines. All images were taken within the linear range at constant gain and pinhole settings at optimal resolution settings determined by the software. For primary cortical neurons and iPSC-derived dopaminergic neurons, the software was programmed to acquire an image every 1 μm for a total of 11 μm, capturing all of the neurons visible in the z-plane in each field of view using a ×63 objective. At least 30 images were acquired for each treatment group from three independent experiments. For animal experiments, the whole midbrain or striatum regions were imaged using a ×5 or ×10 objective. Ten serial coronal midbrain sections were imaged per animal, separated by 240 μm intervals. […]
Confocal images of immunofluorescent staining of midbrain sections were processed using HALO software (Indica Labs), which is a well validated tool for automatic quantification of neurons in brain tissue sections[70]–[72]. […] Fluorescent intensity and area were then assessed in this ROI.

[3] = test system: LAMP1; assay: LAMP1 levels in HEK293 cells; format: cell-based, human; details: A53T a-syn overexpression
Description: Infected or transfected cells were scraped from six-well dishes and lysed with lysis buffer (50 mM Tris-HCl pH 7.4, 1% Nonidet P-40, 150 mM NaCl, 1 mM EDTA, 1× protease inhibitor mixture (Sigma)) for 30 min at 4 °C. The insoluble pellet was removed following a 10,000 rpm spin for 5 min at 4 °C. Lysates were analyzed by SDS-PAGE/immunoblot using 4–20% Mini-PROTEAN Tris-glycine gels (Bio-Rad), transferred to polyvinylidene fluoride (PVDF) membranes, and blocked in 5% milk containing PBS-Tween-20 (0.1%) for 1 h. PVDF membranes were then incubated with specified primary antibodies followed by incubation with horseradish peroxidase-conjugated secondary antibodies (anti-mouse HRP-linked, Cell Signaling, catalog #7076, 1:5000; anti-rabbit HRP-linked, Cell Signaling, catalog #7074, 1:5000) and detected using enhanced chemiluminescence (GE Healthcare). […]
After fixation, cells were permeabilized with 0.2% Triton-X-100 for 15 min, washed three times with PBS and then incubated with blocking solution (1% BSA, 22.52 mg/mL glycine, 0.1% Tween-20 in PBS or 0.4% saponin, 1% BSA, and 5% goat or donkey serum in PBS) for 1 h. […] Following another three washes with PBS, nuclei were counterstained with DAPI (ThermoFisher) and then coverslips were mounted on slides using Dako fluorescence mounting medium (Agilent) and sealed using clear nail varnish.

DEEIERQLKALG [PDpep1.3]
Effect on autophagic flux [1]: neither A53T a-syn nor PDpep1.3 altered autophagic flux | Effect on a-syn oligomer levels, YFP positive area ([2]; 6 weeks post-injection, SN): significant reduction in a-syn oligomer levels | TH fluorescence in striatum ([2]; V1S/SV2, 6 weeks, individual rats): 0.2276 and 0.1447 and 0.1385 and 0.1997 and 0.2935 and 0.176 and 0.1626 and 0.2047 and 0.2584 and 0.2974 | YFP mean fluorescence intensity in TH+ and RFP+ SN cells ([2]; V1S/SV2, 6 weeks, n = 8–9 rats/group): 0.063 ± 0.0167 RFU | Effect on pS129 a-syn in striatum ([2]; V1S/SV2 rats): reduced pS129 a-syn accumulation in the striatum | Effect on LAMP1 levels, HEK293 [3]: LAMP1 levels were restored
